Source: paper PMC3017127, “Survey of Tyrosine Kinase Signaling Reveals ROS Kinase Fusions in Human Cholangiocarcinoma” (PLoS ONE, 2011)

Assays:
NPM-ALK = tested on: T1, NPM-ALK; experiment: Karpas-299 cell viability (CellTiter […] AQueous One, MTS); format: cell-based; conditions: 72 h; growth read-out of human lymphoma cells with endogenous fusion; control line
T1 construct: endogenous NPM-ALK fusion in Karpas-299 cells; with Nucleophosmin

FIG-ROS(S) = tested on: T2, FIG-ROS(S); experiment: BaF3 cell viability (CellTiter […] AQueous One, MTS), IL-3-independent growth; format: cell-based, Mus musculus; conditions: 72 h; growth read-out of cells depending on the fusion kinase; ROS phosphorylation read by Western blot in a separate 3 h test
T2 construct: gene ROS1; C-terminal Myc tag; MSCV-Neo in murine BaF3 cells; with Golgi-associated PDZ and coiled-coil motif-containing protein

FIG-ROS(L) = tested on: T3, FIG-ROS(L); experiment: as above; format: cell-based, Mus musculus; conditions: 72 h; growth read-out of cells depending on the fusion kinase; ROS phosphorylation read by Western blot in a separate 3 h test
T3 construct: gene ROS1; C-terminal Myc tag; MSCV-Neo in murine BaF3 cells; with Golgi-associated PDZ and coiled-coil motif-containing protein

COc1cc(N2CCC(N3CCN(C)CC3)CC2)ccc1Nc1ncc(Cl)c(Nc2ccccc2S(=O)(=O)C(C)C)n1 [TAE684]
IC50 (FIG-ROS(S)): 10 nM
IC50 (FIG-ROS(L)): 1.8 nM
